Publication PMC12010006, “Subnanomolar MAS-related G protein-coupled receptor-X2/B2 antagonists with efficacy in human mast cells and disease models” (Signal Transduction and Targeted Therapy, 2025)
Like-named read-outs stand apart in the source and are kept apart here.

How the values were obtained:
[1] = Metabolic stability in human liver microsomes; assay type: in vitro ADME; settings: both sexes, human liver microsomes 0.25 mg/ml, compound 1 µM; for half-life at 1 µM: human, liver microsomes, read-out: T1/2 (half-life); for microsomal CLint at 1 µM: read-out: Clint (intrinsic clearance)
MRGPRX2 [2] = biological target: T1, MRGPRX2 (Homo sapiens, UniProt Q96LB1); assay: β-arrestin recruitment assay (antagonist mode), β-arrestin-CHO cells recombinantly expressing MRGPRX2; assay type: cell-based; set-up: expressed in transfected cells; settings: versus CST-14 (EC80 1,000 nM, EC50 483 nM); Cheng-Prusoff; read-out: β-Arrestin assay Ki ± SEM
T1 sequence (Q96LB1 1-330): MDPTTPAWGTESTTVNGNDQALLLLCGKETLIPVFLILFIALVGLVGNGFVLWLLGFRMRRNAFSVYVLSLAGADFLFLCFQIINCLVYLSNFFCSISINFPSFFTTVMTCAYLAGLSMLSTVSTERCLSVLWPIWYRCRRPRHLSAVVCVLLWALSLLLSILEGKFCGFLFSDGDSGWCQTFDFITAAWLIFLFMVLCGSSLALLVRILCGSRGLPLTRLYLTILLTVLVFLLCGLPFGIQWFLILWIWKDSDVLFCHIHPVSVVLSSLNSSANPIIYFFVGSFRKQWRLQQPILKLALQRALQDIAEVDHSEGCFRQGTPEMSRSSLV

MRGPRX2 [3] = biological target: T1, MRGPRX2; assay: Ca2+ mobilization assay, LN229 cells overexpressing MRGPRX2; assay type: cell-based; set-up: expressed in transfected cells; host or cells: LN229 human glioblastoma cells; plasmid pLXSN-MRGPRX2 (Addgene #213960); settings: for MRGPRX2 antagonistic potency in Ca2+ assay, in words: versus CST-14; for Ki: versus CST-14 (EC80 800 nM, EC50 452 nM), Cheng-Prusoff, read-out: Ca2+ assay Ki ± SEM
Experimental: Glioblastoma LN229-MRGPRX2 stably expressing MRGPRX2 (produced by retroviral transfection) were seeded into black sterile 96-well microplates at a density of 5 × 10^4 cells/well in 200 µL of DMEM/F12-Nut Mix medium, supplemented with 10% FCS, 100 U/mL of penicillin 100 µg/mL of streptomycin, and 200 µg/mL of G418 and incubated for 18–22 h.
The next day Fluo-4 AM Solution (1 mM) (Thermo Fisher Scientific) was prepared and used to prepare cell loading dye solution consisting of 4970 µL of Hank’s Buffered Saline Solution (HBSS) buffer, 15 µL of 20% Pluronic-F and 15 µL of 1 mM Fluo-4 AM. Next, the cell medium was removed and exchanged for 40 µL of dye solution per well (final concentration of Fluo-4 AM: 3 µM). The cell plate was incubated for 60 min in the dark at room temperature, then the dye solution was removed and replaced by 189 µL HBSS. Subsequently, 1 µL of antagonist diluted in DMSO was added and incubated for 30 min at room temperature and in the dark (final DMSO concentration 0.5%, v/v). CST-14 or another agonist prepared in HBSS as well as carbachol (final concentration 100 µM) were pipetted (10 µL) using a FlexStation® 3 Multi-Mode Microplate Reader. For the determination of baseline fluorescence, HBSS buffer containing solvent of the investigated compound was used. Fluorescence was measured for 120 intervals of 1 s (number of flashes: 10) at a wavelength of 525 nm (excitation 485 nm) using the SoftMax® Pro5.1 Microplate Data Acquisition & Analysis Software. Three independent experiments were performed in duplicates. Measurements are provided in relative fluorescence units and normalized to the maximal effect of CST-14.

[4] = MTT cytotoxicity assay, 1321N1 astrocytoma cells; assay type: cell-based; settings: human; for cytotoxicity at 72 h, 10000 nM: up to 10,000 nM, read-out: Cytotoxicity % effect
Experimental: Potential cytotoxicity of 24 and its similarly potent analogs 27 and 30 was assessed in 3-(4,5-dimethylthiazol-2-yl)-2,5-diphenyl-2H-tetrazolium bromide (MTT) assays performed on human 1321N1 astrocytoma cells (Supplementary Table S3). This cell line was chosen since it is well-established for the screening of cytotoxic drugs, making it a reliable choice for assessing cytotoxicity.[46]
For the experiment, 1321N1 astrocytoma cells were seeded at a density of 1 × 10^5 cells/well in 180 µL of cell medium into transparent 96-well plates, whereby the outer wells only contained buffer (to avoid an edge effect). Cells were incubated for 24 h at 37°C, 5% CO2. Compound dilutions were prepared in DMSO. […] Subsequently, 20 µL of these compound dilutions were added to each well so that astrocytoma cells were incubated with varying concentrations of MRGPRX2 antagonists (0.01 µM–10 µM) at 37° C, 5% CO2. 5-Fluoruracil, a cytostatic drug, served as a positive control. Medium-containing DMSO in the absence of a compound served as a negative control. After 71 h, […] of MTT solution (5 mg/mL, prepared in Millipore water) was added to each well (final concentration 0.5 mg/mL) and cells were incubated again for another hour. Subsequently, the medium was removed, and cells were lyzed by adding 100 µL of DMSO per well. In order to dissolve the produced formazan dye crystals, plates were incubated for 2 min on a rotary shaker (150 rpm). Afterward, the UV absorbance at 570 nm was measured by using SoftMax® Pro5.1 Microplate Data Acquisition & Analysis Software (Molecular Devices, Sunnyvale, CA, USA). The UV absorbance at 690 nm was measured directly afterward to eliminate the background absorbance of residual medium and cell components. The values of the measured UV absorbance at 690 nm were subtracted from the values obtained by the measurement of UV absorbance at 570 nm. Three to four independent experiments were performed, each in triplicate.

MRGPRX2 [5] = biological target: T1, MRGPRX2; assay: β-arrestin assay (agonist mode), β-arrestin CHO cells recombinantly expressing MRGPRX2; assay type: cell-based; settings: for EC50: agonist test, read-out: β-Arrestin assay EC50 ± SEM; for β-Arrestin assay % activation: normalized to CST-14 (EC80 5,000 nM)
From the text: Eurofins DiscoverX (Fremont, CA, USA) provided engineered Chinese hamster ovary (CHO) cells stably expressing β-arrestin-2 fused to a large β-galactosidase fragment (enzyme acceptor, EA). These CHO-K1-β-arrestin-2 cells were commercially available (93-0164). CHO-K1-β-arrestin-2 cells that additionally expressed MRGPRX1, -2, or -4 fused to the fragment ProLink™ (PK) were also purchased from the same company (93-0919C2, 93-0309C2, and 3-0541C2A, respectively). CHO cells expressing MRGPRX3 were generated as previously […].[31] The cells were grown in F-12 Ham Nutrient Mixture (Life Technologies) supplemented with 10% FBS, 100 U/mL of penicillin, 100 µg/mL of streptomycin (PAN-Biotech), 300 μg/mL of hygromycin B (PAN-Biotech), and 800 μg/mL of gentamicin (PAN-Biotech) at 37 °C and 5% CO2.).
The assays were carried out as previously described.[22] […] After 30 min of incubation at 37 °C and 5% CO2, Cortistatin-14 (CST-14, Bioscience, Bristol, United Kingdom) or another MRGPRX2 agonist that served as a standard agonist was added, and the mixture was incubated for 90 min at 37 °C and 5% CO2. Next, a detection reagent (50 µL, DiscoverX) was added, and the mixture was incubated at room temperature in the dark for 60 min. Chemiluminescence was measured on a Mithras LB 940 plate reader (Berthold Technologies, Bad Wildbad, Germany). The results represent means ± SEM of three to five independent experiments, each in duplicates.
^d β-Arrestin CHO cells recombinantly expressing MRGPRX2
^f Percentage of activation of normalized to CST-14 (EC80 5,000 nM)

MRGPRX2 [6] = biological target: T1, MRGPRX2; set-up: expressed in transfected cells; host or cells: LN229 human glioblastoma cells; plasmid pLXSN-MRGPRX2 (Addgene #213960); method as in earlier work; settings: read-out: EC50 as MRGPRX2 agonist; cited from earlier work

Structure (SMILES): CCc1c(C(C)C)[nH]c2nc3nc(F)ccc3n2c1=O [Compound 33]
- half-life at 1 µM [1]: 48.8 min
- microsomal CLint at 1 µM [1]: 28.4 µL/min/mg
- Ki (MRGPRX2 [2]): 1610 nM
- MRGPRX2 antagonistic potency in Ca2+ assay, in words (MRGPRX2 [3]): reduced potency dramatically
- Ki (MRGPRX2 [3]): 906 ± 137 nM

Structure (SMILES): CCc1c(C(C)C)[nH]c2nc3cc(F)ccc3n2c1=O [Compound 30, 3-ethyl-8-fluoro-2-isopropylbenzo[4,5]imidazo[1,2-a]pyrimidin-4(1H)-one]
- CC50 at 72 h [4]: > 10000 nM
- cytotoxicity at 72 h, 10000 nM [4]: 30%
- half-life at 1 µM [1]: 14 min
- microsomal CLint at 1 µM [1]: 100 µL/min/mg
- EC50 (MRGPRX2 [5]): > 10000 nM
- β-Arrestin assay % activation (MRGPRX2 [5]): -3%
- Ki (MRGPRX2 [2]): 5.89 ± 2.86 nM
- MRGPRX2 antagonistic potency in Ca2+ assay, in words (MRGPRX2 [3]): subnanomolar potencies
- Ki (MRGPRX2 [3]): 0.455 nM

Structure (SMILES): CN(C)[C@@H]1CCN(c2cc(-c3ccccc3)nc3ccnn23)C1 [ZINC-3573]
- EC50 (MRGPRX2 [6]): 760 nM

Structure (SMILES): CCc1c(C2CC2)[nH]c2nc3ccccc3n2c1=O [Compound 14]
- EC50 (MRGPRX2 [5]): > 10000 nM
- β-Arrestin assay % activation (MRGPRX2 [5]): 0%
- Ki (MRGPRX2 [2]): 384 ± 214 nM
- Ki (MRGPRX2 [3]): 69.7 nM

Structure (SMILES): CCCc1c(C(C)C)[nH]c2nc3ccccc3n2c1=O [Compound 11]
- EC50 (MRGPRX2 [5]): > 10000 nM
- β-Arrestin assay % activation (MRGPRX2 [5]): 1%
- Ki (MRGPRX2 [2]): 166 ± 69.7 nM
- Ki (MRGPRX2 [3]): 43.3 ± 24.5 nM

Structure (SMILES): CCc1c(C(C)C)[nH]c2nc3cc(C)ccc3n2c1=O [Compound 29]
- EC50 (MRGPRX2 [5]): > 10000 nM
- β-Arrestin assay % activation (MRGPRX2 [5]): -2%
- Ki (MRGPRX2 [2]): 29.6 ± 19 nM
- fold improved potency compared to 27 (MRGPRX2 [3]): 40 fold
- MRGPRX2 antagonistic potency in Ca2+ assay, in words (MRGPRX2 [3]): subnanomolar potencies
- Ki (MRGPRX2 [3]): 0.161 nM

Structure (SMILES): CCc1c(CC(C)C)[nH]c2nc3ccccc3n2c1=O [Compound 12]
- EC50 (MRGPRX2 [5]): > 10000 nM
- β-Arrestin assay % activation (MRGPRX2 [5]): -2%
- Ki (MRGPRX2 [2]): 152 ± 33.8 nM
- Ki (MRGPRX2 [3]): 18.5 ± 13.7 nM

Structure (SMILES): Cc1[nH]c2nc3ccccc3n2c(=O)c1C [Compound 3]
- EC50 (MRGPRX2 [5]): > 10000 nM
- β-Arrestin assay % activation (MRGPRX2 [5]): 1%
- Ki (MRGPRX2 [2]): 3780 nM
- fold decrease in potency (MRGPRX2 [3]; 3-methyl compared to 3-ethyl (2)): 4 fold
- Ki (MRGPRX2 [3]): 1040 nM

Structure (SMILES): CCc1c(C(C)C)[nH]c2nc3cc(Cl)c(Cl)cc3n2c1=O [Compound 25]
- EC50 (MRGPRX2 [5]): > 10000 nM
- β-Arrestin assay % activation (MRGPRX2 [5]): 1%
- Ki (MRGPRX2 [2]): 155 ± 56.6 nM
- Ki (MRGPRX2 [3]): 2.98 nM

Structure (SMILES): CCc1c(C(C)C)[nH]c2nc3ncc(F)cc3n2c1=O [Compound 32]
- EC50 (MRGPRX2 [5]): > 10000 nM
- β-Arrestin assay % activation (MRGPRX2 [5]): -3%
- Ki (MRGPRX2 [2]): 824 ± 553 nM
- MRGPRX2 antagonistic potency in Ca2+ assay, in words (MRGPRX2 [3]): reduced potency dramatically
- Ki (MRGPRX2 [3]): 931 ± 685 nM

Structure (SMILES): CCCc1[nH]c2nc3ccccc3n2c(=O)c1CCC [Compound 9]
- EC50 (MRGPRX2 [5]): > 10000 nM
- β-Arrestin assay % activation (MRGPRX2 [5]): -1%
- Ki (MRGPRX2 [2]): 69.7 ± 20.8 nM
- Ki (MRGPRX2 [3]): 16.6 ± 10.9 nM

Structure (SMILES): CCc1c(C(C)C)[nH]c2nc3cc(C)c(C)cc3n2c1=O [Compound 27]
- CC50 at 72 h [4]: > 10000 nM
- cytotoxicity at 72 h, 10000 nM [4]: 28%
- half-life at 1 µM [1]: 10.6 min
- microsomal CLint at 1 µM [1]: 131 µL/min/mg
- EC50 (MRGPRX2 [5]): > 10000 nM
- β-Arrestin assay % activation (MRGPRX2 [5]): 0%
- Ki (MRGPRX2 [2]): 28.5 ± 23.9 nM
- fold less potent than 24 (MRGPRX2 [3]): 5 fold
- Ki (MRGPRX2 [3]): 6.64 nM

Structure (SMILES): CCCc1[nH]c2nc3ccccc3n2c(=O)c1CC [Compound 8]
- EC50 (MRGPRX2 [5]): > 10000 nM
- β-Arrestin assay % activation (MRGPRX2 [5]): -1%
- Ki (MRGPRX2 [2]): 90.5 ± 7.03 nM
- Ki (MRGPRX2 [3]): 25.8 nM
